Data taken from patent publication US8399430B2, “Alkylated semi synthetic glycosaminoglycosan ethers, and methods for making and using thereof” (University of Utah Research Foundation, priority 2008, dated 2013).

Columns and labels:
Xa = test: Anti-Xa anticoagulant activity; assay type: biochemical
RAGE/HMGB1 = biological target: T1, RAGE/HMGB1 (Homo sapiens, UniProt Q15109); test: Solid phase binding assay, RAGE to HMGB-1 (amphoterin); conditions: Table 2
T1 construct: purchased R&D Systems (Minneapolis, Minn.)
T1 sequence (Q15109 with tags, fused parts or gaps limits assumed): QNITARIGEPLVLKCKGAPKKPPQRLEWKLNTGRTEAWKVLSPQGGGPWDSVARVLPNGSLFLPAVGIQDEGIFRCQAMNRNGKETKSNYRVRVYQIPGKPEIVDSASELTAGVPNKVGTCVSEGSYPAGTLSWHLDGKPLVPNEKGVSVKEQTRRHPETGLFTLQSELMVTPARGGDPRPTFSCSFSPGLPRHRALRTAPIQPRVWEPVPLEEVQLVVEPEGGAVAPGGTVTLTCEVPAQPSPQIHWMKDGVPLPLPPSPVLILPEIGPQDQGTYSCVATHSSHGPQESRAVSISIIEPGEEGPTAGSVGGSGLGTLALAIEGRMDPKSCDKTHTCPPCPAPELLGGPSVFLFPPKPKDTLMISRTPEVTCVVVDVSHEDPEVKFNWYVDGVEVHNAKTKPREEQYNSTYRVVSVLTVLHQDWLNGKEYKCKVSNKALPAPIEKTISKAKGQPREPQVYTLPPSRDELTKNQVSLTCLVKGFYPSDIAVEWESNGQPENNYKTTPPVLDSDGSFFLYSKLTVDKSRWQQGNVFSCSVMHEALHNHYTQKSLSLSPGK
Protocol: (§1) Solid phase binding assays. Solid phase binding assays were used to study the ability of SAGEs to inhibit RAGE binding to its ligands. For studies of the effect of SAGEs on RAGE binding to its ligands, polyvinyl 96-well plates were coated with 5 μg/well of specific ligand (CML-BSA, HMGB-I or S100b calgranulin). Plates were incubated overnight at 4° C. and washed thrice with PBS-0.05% Tween-20 (PBST). Separately, RAGE-Fc chimera (100 μL containing 0.5 μg/ml in PBST-0.1% BSA) was incubated with an equal volume of serially diluted SAGEs (0.001 to 1,000 μg/ml in PBST-BSA) overnight at 4° C. The following day, 50 μL of RAGE-SAGE mix was transferred to each respective ligand-coated well and incubated at 37° C. for 2 h. Wells were then washed four times with PBST. To detect bound RAGE, 50 μL of anti-RAGE antibody (0.5 μg/ml) was added to each well, the mixture was incubated for 1 h at room temperature, and wells were washed again four times with PBST. Horse-radish peroxidase conjugated secondary antibody (1:10,000 antibody dilution in PBST; 50 μL per well) was added, wells were incubated for 1 h at room temperature, and then washed once with PBST. A colorimetric reaction was initiated by addition of 50 μL of tetramethyl benzidine chromogen (TMB single solution chromogen) and terminated after 15 min by addition of 50 μL of 1 N HCl. Absorbance at 450 nm was read using an automated microplate reader.

[1] = biological target: T2, Hageman factor (Factor XII) (Homo sapiens, UniProt P00748); test: Activation of Hageman factor (Factor XII) in pooled human plasma, amidolytic activity; conditions: Table 2, table line reads IC50 values
T2 sequence (P00748 20-615): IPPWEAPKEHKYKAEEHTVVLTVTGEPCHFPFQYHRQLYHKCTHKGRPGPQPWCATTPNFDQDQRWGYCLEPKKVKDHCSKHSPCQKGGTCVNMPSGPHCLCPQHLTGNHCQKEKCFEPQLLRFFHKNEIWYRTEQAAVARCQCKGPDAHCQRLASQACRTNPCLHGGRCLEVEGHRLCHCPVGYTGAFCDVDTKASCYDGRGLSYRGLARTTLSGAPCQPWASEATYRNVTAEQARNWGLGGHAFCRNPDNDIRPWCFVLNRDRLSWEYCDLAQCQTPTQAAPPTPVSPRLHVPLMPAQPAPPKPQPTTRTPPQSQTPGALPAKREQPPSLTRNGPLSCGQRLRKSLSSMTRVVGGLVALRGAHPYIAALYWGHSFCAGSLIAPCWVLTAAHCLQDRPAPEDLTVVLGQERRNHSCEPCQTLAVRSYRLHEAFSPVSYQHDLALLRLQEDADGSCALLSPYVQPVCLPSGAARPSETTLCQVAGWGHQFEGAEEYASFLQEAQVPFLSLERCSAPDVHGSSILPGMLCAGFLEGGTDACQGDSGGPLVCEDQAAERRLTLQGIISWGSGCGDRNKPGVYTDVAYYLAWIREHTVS
Protocol: Enzymatic assays. […] Pooled human plasma (5 μl) was incubated with 100 μl of SAHA (0.1 to 1000 μg/ml) in 0.05 M HEPES containing Triton X-100 for 5 min at 5° C.
SAGEs were screened for their ability to stimulate intrinsic coagulation (activation of Hageman factor). Pooled human plasma was incubated with heparin or low molecular weight (Lmw) sulfated and fluoroalkylated HAs (Lmw-OSFHA-1, Lmw-OSFHA-2) and amidolytic activity was determined using the substrate D-cyclohydrotyrosyl-Gly-Arg-p-NA.

P-Selectin/PSGL = biological target: T3, P-Selectin/PSGL (Homo sapiens, UniProt P16109); test: U937 monocyte binding to P-selectin (cell binding assay); conditions: Table 2; U937 binding to P-selectin-Fc
T3 construct: purchased R&D Systems (Minneapolis, Minn.)
T3 sequence (P16109 with tags, fused parts or gaps limits assumed): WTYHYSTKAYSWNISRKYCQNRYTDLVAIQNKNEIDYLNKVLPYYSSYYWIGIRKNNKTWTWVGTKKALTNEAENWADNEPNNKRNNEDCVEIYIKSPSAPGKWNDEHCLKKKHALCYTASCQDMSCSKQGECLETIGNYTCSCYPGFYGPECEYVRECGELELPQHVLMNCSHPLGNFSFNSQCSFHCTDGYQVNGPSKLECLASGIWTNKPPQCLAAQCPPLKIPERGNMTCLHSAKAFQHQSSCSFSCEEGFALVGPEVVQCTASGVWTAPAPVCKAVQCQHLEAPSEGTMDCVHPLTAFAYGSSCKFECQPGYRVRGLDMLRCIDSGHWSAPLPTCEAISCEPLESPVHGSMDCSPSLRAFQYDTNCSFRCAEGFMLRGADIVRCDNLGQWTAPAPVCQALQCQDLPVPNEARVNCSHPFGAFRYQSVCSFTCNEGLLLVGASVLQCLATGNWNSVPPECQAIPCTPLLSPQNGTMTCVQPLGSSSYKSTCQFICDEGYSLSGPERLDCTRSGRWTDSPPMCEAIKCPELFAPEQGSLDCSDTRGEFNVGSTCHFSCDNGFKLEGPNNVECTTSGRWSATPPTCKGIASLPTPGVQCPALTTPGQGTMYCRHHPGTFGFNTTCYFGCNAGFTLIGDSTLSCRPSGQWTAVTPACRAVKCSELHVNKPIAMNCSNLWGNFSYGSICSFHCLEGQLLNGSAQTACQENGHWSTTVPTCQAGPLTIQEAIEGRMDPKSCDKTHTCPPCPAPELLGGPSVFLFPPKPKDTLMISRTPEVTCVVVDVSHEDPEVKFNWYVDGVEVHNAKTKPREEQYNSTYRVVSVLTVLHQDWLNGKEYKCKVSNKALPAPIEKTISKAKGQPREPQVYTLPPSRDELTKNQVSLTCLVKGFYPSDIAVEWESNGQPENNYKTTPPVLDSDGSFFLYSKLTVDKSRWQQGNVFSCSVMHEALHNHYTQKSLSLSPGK
Protocol: (§2) Cell Binding Assays. The effect of SAGEs on binding of U937 monocytes to P-selectin or RAGE was studied in high-bind micro plates coated with 8 μg/ml protein A ([…]) in 0.2 M carbonate-bicarbonate buffer (pH 9.4). Plates were washed with phosphate buffered saline containing 1% BSA (PBS-BSA), and P-selectin-Fc or RAGE-Fc chimera (50 μL containing 1 μg) was added to each well and incubated for 2 h at room temperature or overnight at 4° C., respectively. Following incubation, wells were washed twice with PBS-BSA. […] As a negative control, 50 μL of 10 mM EDTA was added to select wells to prevent cell binding through sequestration of calcium. At the end of the incubation period, 50 μL of U937 cells (10^5 cells/well, calcein-labeled according to manufacturer's instructions) were added to each well and plates were incubated an additional 30 min at room temperature. The wells were then washed thrice with PBS, and bound cells were lysed by addition of 100 μL of Tris-TritonX-100 containing buffer. Fluorescence was measured on a microplate reader using excitation of 494 nm and emission of 517 nm.

RAGE/S100B = biological target: T4, RAGE/S100B (Homo sapiens, UniProt Q15109); test: Solid phase binding assay, RAGE to S100b calgranulin; conditions: Table 2
T4 construct: purchased R&D Systems (Minneapolis, Minn.)
T4 sequence (Q15109 with tags, fused parts or gaps limits assumed): as the sequence (Q15109 with tags, fused parts or gaps limits assumed) above
Protocol: as §1

RAGE/CML-BSA = biological target: T5, RAGE/CML-BSA (Homo sapiens, UniProt Q15109); test: Solid phase binding assay, RAGE to CML-BSA; conditions: Table 2
T5 construct: purchased R&D Systems (Minneapolis, Minn.)
T5 sequence (Q15109 with tags, fused parts or gaps limits assumed): as above
Protocol: as §1

human leukocyte elastase = biological target: T6, human leukocyte elastase (Homo sapiens, UniProt P08246); test: Human leukocyte elastase activity assay, chromogenic substrate; assay type: biochemical; conditions: Table 2
T6 sequence (P08246 30-267): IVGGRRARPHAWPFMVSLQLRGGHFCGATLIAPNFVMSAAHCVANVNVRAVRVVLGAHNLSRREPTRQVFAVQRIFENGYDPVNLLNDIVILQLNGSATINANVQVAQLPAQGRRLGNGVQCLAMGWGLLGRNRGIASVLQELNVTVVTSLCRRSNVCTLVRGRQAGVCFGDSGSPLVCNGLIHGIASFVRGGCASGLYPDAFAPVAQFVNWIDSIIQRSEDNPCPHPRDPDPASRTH
Source text: Enzymatic assays. […] Nat Biotech 26:669-675, 2008).

IIa = test: Anti-IIa anticoagulant activity; assay type: biochemical
RAGE/Mac-1 = biological target: T7, RAGE/Mac-1 (Homo sapiens, UniProt Q15109); test: U937 monocyte binding to RAGE (cell binding assay); conditions: Table 2; U937 binding to RAGE-Fc
T7 construct: purchased R&D Systems (Minneapolis, Minn.)
T7 sequence (Q15109 with tags, fused parts or gaps limits assumed): as the sequence (Q15109 with tags, fused parts or gaps limits assumed) above
Protocol: as §2

Heparin [reference compound]
anti-Xa anticoagulant activity (Xa): 150 U/mg
RAGE/HMGB1 (RAGE/HMGB1): 0.04 µg/mL
Hageman Factor [1]: 0.4 µg/mL
P-Selectin/PSGL (P-Selectin/PSGL): 0.3 µg/mL
RAGE/S100B (RAGE/S100B): 1.29 µg/mL
RAGE/CML-BSA (RAGE/CML-BSA): 0.39 µg/mL
Leukocyte Elastase (human leukocyte elastase): 0.21 µg/mL
anti-IIa anticoagulant activity (IIa): 150 U/mg
RAGE/Mac-1 (RAGE/Mac-1): 0.11 µg/mL
